Reference: publication PMC4774911, “Biochemical Screening of Five Protein Kinases from Plasmodium falciparum against 14,000 Cell-Active Compounds” (PLoS ONE, 2016)
Where “and” joins values, the source holds several entries; their conditions need not be identical. Equal entries are not always repeated.

Legend:
Assay in all cases: biochemical
[1] = target: ABL2 (Homo sapiens, UniProt P42684)
[2] = target: PAK4 (Homo sapiens, UniProt O96013)
[3] = target: MAP4K5 (Homo sapiens, UniProt Q9Y4K4)
[4] = target: CAMK2G (Homo sapiens, UniProt Q13555)
Sequence of CAMK2G (Q13555 whole entry): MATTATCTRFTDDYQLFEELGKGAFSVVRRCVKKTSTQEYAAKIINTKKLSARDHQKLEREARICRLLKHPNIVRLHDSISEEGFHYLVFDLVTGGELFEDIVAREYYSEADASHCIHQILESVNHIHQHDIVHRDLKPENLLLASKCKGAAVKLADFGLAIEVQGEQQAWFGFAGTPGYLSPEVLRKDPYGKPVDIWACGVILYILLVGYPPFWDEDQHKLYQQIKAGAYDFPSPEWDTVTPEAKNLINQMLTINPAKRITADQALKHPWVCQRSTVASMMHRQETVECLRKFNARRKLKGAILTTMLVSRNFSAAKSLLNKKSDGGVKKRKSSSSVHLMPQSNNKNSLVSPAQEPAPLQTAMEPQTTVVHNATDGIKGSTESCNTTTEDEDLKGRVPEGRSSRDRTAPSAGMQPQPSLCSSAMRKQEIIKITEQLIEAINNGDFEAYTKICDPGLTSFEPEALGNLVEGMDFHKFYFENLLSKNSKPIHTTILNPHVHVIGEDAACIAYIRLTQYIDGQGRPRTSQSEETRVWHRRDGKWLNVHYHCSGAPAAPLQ

[5] = target: T1, IRAK4 (Homo sapiens, UniProt Q9NWZ3)
T1 sequence (Q9NWZ3 1-460): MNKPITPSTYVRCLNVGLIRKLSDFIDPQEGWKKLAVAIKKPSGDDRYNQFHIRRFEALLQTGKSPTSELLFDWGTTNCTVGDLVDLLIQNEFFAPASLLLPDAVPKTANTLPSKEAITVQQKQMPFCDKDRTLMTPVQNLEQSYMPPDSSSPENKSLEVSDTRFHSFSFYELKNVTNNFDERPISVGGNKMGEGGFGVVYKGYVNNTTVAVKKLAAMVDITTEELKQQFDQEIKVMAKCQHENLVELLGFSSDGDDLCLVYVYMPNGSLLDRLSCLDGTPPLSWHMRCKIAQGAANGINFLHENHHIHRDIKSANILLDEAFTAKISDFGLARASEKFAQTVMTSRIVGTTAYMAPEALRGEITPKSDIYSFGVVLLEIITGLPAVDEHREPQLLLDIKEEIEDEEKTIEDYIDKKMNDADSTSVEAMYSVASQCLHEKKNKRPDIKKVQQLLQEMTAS

[6] = target: CSNK1A1 (Homo sapiens, UniProt P48729)
Sequence of CSNK1A1 (P48729 whole entry): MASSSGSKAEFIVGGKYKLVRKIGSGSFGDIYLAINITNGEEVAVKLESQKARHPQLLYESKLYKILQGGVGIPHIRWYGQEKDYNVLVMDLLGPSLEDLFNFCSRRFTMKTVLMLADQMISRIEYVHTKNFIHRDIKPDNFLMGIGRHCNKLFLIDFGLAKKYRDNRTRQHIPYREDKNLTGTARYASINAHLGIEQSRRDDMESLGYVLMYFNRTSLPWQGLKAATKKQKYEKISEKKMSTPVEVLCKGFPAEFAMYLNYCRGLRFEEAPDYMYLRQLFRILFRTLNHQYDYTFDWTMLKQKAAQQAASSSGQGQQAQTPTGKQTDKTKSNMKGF

[7] = target: JAK1 (Homo sapiens, UniProt P23458)
Sequence of JAK1 (P23458 whole entry): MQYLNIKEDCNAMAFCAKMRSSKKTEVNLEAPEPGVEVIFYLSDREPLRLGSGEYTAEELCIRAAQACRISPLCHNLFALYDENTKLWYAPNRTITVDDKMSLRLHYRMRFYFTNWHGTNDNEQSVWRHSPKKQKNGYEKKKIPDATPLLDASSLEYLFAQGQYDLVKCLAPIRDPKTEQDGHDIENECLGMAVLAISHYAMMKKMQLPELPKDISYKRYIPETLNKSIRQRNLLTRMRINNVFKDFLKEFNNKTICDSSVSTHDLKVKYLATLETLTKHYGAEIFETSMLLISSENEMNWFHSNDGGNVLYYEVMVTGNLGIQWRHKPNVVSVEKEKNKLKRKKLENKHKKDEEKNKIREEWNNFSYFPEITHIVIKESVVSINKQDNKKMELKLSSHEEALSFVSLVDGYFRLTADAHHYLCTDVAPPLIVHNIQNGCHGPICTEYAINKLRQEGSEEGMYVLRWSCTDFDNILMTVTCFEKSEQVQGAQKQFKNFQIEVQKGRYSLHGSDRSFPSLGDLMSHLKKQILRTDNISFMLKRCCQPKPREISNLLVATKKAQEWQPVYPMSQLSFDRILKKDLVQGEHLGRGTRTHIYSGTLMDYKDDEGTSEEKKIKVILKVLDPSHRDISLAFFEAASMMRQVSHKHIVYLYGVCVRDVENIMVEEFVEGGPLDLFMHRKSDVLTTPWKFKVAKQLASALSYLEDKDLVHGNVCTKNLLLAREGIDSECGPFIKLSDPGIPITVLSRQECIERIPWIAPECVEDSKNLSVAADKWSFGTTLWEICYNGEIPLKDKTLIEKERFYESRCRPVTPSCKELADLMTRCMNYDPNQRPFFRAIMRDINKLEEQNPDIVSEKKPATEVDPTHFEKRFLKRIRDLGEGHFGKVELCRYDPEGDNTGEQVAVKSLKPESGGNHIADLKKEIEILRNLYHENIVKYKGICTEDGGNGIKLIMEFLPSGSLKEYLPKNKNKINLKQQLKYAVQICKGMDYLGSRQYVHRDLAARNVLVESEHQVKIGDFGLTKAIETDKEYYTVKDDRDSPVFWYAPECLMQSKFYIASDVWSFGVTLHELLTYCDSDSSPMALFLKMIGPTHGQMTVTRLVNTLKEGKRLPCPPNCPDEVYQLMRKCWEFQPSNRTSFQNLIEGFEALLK

[8] = target: CDK9 (Homo sapiens, UniProt P50750)
Sequence of CDK9 (P50750 whole entry): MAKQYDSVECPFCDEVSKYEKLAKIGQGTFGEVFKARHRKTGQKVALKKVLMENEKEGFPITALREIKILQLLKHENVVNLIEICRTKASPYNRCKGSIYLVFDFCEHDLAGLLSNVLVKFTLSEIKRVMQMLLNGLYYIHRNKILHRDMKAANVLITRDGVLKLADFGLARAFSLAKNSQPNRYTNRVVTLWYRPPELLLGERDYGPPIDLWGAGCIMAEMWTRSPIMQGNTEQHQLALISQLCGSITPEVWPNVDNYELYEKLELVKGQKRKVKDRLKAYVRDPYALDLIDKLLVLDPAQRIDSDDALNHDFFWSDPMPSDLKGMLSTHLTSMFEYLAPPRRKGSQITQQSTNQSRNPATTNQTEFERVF

[9] = target: T2, PIP4K2A (Homo sapiens, UniProt P48426)
T2 sequence (P48426 1-406): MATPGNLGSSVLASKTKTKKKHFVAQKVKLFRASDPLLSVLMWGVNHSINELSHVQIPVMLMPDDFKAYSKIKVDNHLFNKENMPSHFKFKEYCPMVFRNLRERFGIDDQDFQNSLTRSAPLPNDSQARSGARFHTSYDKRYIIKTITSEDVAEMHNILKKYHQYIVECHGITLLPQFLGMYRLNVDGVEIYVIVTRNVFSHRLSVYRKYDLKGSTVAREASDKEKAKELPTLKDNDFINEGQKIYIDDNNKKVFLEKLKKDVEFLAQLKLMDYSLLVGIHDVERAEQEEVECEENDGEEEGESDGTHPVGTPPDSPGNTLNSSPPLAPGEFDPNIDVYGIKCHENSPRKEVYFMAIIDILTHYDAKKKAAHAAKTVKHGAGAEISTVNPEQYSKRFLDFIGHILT

[10] = target: OXSR1 (Homo sapiens, UniProt O95747)
Sequence of OXSR1 (O95747 whole entry): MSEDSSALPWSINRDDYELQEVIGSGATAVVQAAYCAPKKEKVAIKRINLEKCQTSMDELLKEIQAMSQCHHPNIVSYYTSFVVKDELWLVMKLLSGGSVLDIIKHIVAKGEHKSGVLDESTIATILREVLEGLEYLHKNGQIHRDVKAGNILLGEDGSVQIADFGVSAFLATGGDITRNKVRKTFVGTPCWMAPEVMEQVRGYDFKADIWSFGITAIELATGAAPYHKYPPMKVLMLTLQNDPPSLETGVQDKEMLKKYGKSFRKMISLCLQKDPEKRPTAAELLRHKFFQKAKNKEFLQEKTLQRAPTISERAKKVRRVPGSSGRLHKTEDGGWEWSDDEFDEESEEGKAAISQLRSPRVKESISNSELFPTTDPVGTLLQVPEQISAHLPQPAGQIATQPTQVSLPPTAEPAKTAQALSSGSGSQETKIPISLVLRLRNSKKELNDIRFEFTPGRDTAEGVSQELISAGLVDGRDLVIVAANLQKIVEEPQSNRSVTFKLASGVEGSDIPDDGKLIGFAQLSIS

[11] = target: CRKRS (Homo sapiens, UniProt Q9NYV4)
[12] = target: T3, ACVR1B (Homo sapiens, UniProt P36896)
T3 sequence (P36896 1-505): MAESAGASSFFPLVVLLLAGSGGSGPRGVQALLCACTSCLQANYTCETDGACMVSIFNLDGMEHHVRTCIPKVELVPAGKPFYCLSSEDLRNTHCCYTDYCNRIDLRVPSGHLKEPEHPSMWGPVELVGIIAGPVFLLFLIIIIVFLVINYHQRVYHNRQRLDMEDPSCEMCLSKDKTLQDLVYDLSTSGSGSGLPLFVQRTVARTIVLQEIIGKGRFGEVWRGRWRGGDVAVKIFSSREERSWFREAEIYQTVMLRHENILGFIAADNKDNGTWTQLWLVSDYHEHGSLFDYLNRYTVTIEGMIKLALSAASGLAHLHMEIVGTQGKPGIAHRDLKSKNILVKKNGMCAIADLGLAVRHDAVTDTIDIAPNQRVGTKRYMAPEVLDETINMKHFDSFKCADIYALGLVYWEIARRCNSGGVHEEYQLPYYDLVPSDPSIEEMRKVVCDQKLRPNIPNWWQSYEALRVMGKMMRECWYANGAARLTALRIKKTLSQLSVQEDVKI

[13] = target: T4, ITK (Homo sapiens, UniProt Q08881)
T4 sequence (Q08881 1-620): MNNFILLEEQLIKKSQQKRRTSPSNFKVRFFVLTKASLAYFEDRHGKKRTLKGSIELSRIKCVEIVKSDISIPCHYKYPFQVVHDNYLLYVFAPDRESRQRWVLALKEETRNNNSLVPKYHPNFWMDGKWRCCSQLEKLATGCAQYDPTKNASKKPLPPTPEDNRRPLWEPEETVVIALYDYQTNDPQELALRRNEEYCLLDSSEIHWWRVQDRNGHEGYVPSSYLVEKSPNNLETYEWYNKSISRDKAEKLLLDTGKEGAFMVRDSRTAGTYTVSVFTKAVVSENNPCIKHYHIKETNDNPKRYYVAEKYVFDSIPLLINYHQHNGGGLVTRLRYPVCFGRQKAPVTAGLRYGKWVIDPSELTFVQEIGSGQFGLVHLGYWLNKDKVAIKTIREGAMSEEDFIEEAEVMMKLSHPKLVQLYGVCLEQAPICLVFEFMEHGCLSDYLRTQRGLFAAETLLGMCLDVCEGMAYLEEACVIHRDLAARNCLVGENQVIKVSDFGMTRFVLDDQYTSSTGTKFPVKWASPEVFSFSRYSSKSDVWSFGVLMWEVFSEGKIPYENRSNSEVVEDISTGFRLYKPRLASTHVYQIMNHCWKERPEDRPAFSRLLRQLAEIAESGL

Sequence of PAK4 (O96013 whole entry): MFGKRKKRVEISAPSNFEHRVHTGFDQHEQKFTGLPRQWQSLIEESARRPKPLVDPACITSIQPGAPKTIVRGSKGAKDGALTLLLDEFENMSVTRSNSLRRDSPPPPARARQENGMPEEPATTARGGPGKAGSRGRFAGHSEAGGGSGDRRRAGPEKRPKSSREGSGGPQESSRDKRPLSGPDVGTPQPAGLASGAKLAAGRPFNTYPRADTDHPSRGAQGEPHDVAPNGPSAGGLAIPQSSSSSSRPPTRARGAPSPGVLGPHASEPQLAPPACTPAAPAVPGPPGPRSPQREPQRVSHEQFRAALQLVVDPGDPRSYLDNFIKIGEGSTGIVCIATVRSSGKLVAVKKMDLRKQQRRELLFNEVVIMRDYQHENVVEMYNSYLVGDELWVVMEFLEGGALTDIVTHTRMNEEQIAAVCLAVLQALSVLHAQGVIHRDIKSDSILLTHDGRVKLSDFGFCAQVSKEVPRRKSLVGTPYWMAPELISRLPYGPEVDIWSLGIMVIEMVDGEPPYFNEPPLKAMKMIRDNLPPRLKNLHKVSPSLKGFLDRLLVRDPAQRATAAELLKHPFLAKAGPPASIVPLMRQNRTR
Sequence of MAP4K5 (Q9Y4K4 whole entry): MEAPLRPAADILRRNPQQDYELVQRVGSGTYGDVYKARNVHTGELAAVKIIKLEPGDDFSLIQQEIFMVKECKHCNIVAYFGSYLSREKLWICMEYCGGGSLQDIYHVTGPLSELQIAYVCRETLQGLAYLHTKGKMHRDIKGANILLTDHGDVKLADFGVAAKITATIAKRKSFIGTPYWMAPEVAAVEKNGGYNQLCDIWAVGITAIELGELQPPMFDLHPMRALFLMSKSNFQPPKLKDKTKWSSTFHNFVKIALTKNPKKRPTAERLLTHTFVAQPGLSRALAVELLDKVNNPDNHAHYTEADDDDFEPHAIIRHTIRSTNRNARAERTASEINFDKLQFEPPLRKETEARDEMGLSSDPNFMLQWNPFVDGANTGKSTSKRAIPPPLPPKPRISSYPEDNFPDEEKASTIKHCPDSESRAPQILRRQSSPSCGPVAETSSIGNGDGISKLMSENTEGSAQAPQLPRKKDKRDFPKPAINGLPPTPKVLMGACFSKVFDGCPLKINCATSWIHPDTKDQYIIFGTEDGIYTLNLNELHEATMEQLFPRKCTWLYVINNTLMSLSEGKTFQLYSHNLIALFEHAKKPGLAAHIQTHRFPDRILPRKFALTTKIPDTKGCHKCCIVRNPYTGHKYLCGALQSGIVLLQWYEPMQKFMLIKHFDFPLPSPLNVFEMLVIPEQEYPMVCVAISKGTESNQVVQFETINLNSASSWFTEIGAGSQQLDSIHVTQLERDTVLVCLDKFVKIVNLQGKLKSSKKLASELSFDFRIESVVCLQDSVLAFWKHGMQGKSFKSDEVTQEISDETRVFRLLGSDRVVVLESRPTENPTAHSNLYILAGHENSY

Row | Compound | IC50 [1] | IC50 [2] | IC50 [3] | IC50 [4] | IC50 [5] [nM] | IC50 [6] | IC50 [7] | IC50 [8] | IC50 [9] | IC50 [10] | IC50 [11] [nM] | IC50 [12] [nM] | IC50 [13] [nM]
1 | CN1CCN(c2ccc(Nc3ncc(C#N)c(Nc4ccccc4C(N)=O)n3)cc2)CC1.Cl [TCMDC-134116] | 200 nM and 160 nM | 380 nM and 420 nM | 280 nM and 290 nM | 1500 nM and 1300 nM | 170 | 960 nM and 1400 nM | 53 nM and 79 nM | 1100 nM and 750 nM | 1100 nM and 1400 nM | 81 nM and 130 nM | 650 | 4000 | 140
2 | Cl.NCC1(c2nc(-c3ccc(Cl)c(O)c3)c(-c3ccncc3)[nH]2)CCCCC1 [TCMDC-141154] | 490 nM and 400 nM | 9100 nM and > 20000 nM | 5000 nM | > 20000 nM | > 20000 | 290 nM and 330 nM | > 20000 nM | > 20000 nM | > 20000 nM | > 20000 nM | > 20000 | 590 | > 20000
3 | CN(C)CC(O)COc1ccc(Nc2ncc([N+](=O)[O-])c(Nc3ccccc3O)n2)cc1.O=C(O)C(F)(F)F (stereo not drawn) [TCMDC-141399] | 4200 nM | 9000 nM and 6800 nM | 4300 nM | > 20000 nM | > 20000 | 9900 nM | 1100 nM and 1400 nM | 5300 nM and 7300 nM | 1200 nM and 950 nM | > 20000 nM | 2100 | > 20000 | 1700
